Patent publication US8247377B2, “Non-steroidal glucocorticoid inhibitors and their use in treating inflammation, allergy and auto-immune conditions” (Glaxo Group Limited, priority 2006, dated 2012)

Tests used:
MMTV promoter = test: MMTV agonist assay in A549 MMTV cells; assay type: cell-based; details: Homo sapiens, A549, 6 h, >85% = full agonist, >20% and <85% = partial or efficacy selective agonist, read-out: average maximum asymptote in the MMTV agonist assay
From the text: (§1) Human lung carcinoma A549 cell line (ECACC No. 86012804) has been stably transfected in house with a plasmid containing a renilla luciferase reporter with an MMTV promoter. Stimulation of the cell line with GR agonists results in intracellular signal transduction and ultimately translocation of GR into the nucleus. This activates the inserted DNA sequence resulting in transcription of the integrated luciferase gene, which is quantified using a light emission. The stably transfected cell line was grown as a monolayer in DMEM supplemented with FCS-HI (10%), Non-essential amino acids (1%), L-Glutamine (2 mM), Pen/Strep (1%) and Geneticin (50 mg/ml).
A 90% confluent T175 flask of A549 MMTV cells was harvested by centrifugation for 5 min at 200 g, resuspended in assay buffer (DMEM supplemented with 10% FCS 2×HI, 2 mM Glutamax, Non essential amino acids and 25 mM HEPES) and diluted to 0.1×10^6/ml. 70 μl of cell solution was dispensed to each well of white Nunc 384-well plates, containing compound at the required concentration. Plates were incubated for 6 h at 37° C., 95% humidity, 5% CO2. Plates were equilibrated to room temperature for 1 h prior to the addition of 10 μl of Renilla substrate to each well of assay plates. The plates were covered to protect the reagents from light, and then incubated at room temperature for approximately 15 mins before reading them on a Viewlux. Dose response curves were constructed from which pEC50 and maximum asymptote values were estimated.

glucocorticoid receptor = biological target: T1, glucocorticoid receptor (Homo sapiens, UniProt P04150); test: Glucocorticoid receptor binding assay (fluorescence polarisation); details: competition with Alexa 555 fluorescently-labelled dexamethasone derivative, full length glucocorticoid receptor; read-out: glucocorticoid binding pIC50 (converted)
T1 construct: a partially purified full length glucocorticoid receptor
T1 sequence (P04150 1-777): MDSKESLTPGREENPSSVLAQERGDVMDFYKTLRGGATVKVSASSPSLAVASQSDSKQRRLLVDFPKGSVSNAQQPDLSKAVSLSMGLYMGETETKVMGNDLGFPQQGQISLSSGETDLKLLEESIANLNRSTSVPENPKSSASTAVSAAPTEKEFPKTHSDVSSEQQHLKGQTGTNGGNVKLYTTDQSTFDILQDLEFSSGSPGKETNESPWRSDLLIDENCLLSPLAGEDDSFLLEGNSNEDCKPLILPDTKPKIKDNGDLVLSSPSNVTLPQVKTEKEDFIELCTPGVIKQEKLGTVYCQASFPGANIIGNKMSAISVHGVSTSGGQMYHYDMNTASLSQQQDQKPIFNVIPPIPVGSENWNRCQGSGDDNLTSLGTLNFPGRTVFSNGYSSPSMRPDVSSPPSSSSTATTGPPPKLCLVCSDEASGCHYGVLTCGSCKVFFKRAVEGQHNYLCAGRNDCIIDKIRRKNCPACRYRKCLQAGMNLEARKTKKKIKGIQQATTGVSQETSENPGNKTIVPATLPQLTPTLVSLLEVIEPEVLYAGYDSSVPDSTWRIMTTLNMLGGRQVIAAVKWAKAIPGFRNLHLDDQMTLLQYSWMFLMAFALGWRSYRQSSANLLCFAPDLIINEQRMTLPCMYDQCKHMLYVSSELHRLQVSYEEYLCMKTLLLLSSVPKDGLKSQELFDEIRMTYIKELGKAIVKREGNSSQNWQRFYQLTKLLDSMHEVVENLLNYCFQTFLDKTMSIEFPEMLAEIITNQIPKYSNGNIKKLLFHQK
Experimental: Compounds were solvated and diluted in DMSO, and transferred directly into assay plates. Fluorescent dexamethasone and a partially purified full length glucocorticoid receptor were added to the plates, together with buffer components to stabilise the GR protein and incubated at room temperature for 2 hrs in the dark. Binding of each compound was assessed by analysing the displacement of fluorescent ligand by measuring the decrease in fluorescence polarisation signal from the mixture. Dose response curves were constructed from which pIC50 values were estimated.

NFκB = NFκB agonist assay in A549 SPAP cells; assay type: cell-based; details: Homo sapiens; for Emax: A549, A549 SPAP cells, >85% = full agonist, ≧20% = partial or full agonist, read-out: average maximum asymptote in the NFkB assay; for IC50: A549 SPAP cells, TNFα 3.2 ng/ml, read-out: pIC50 for the NFkB assay (converted);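 for average maximum asymptote in the NFkB assay: maximum inhibition of the TNFα-induced NFκB-driven signal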
From the text: as §1, with “containing an ELAM promoter sequence that has” for “containing”, “NFκB response element within it.” for “renilla luciferase reporter with an MMTV promoter.”, “TNFα” for “GR agonists”, “NFκB” for “GR”, “SPAP” for “luciferase”, “colorimetric assay. […]” for “light emission.”
A 70% confluent T225 flask of A549 SPAP cells was harvested by centrifugation for 5 min at 200 g, resuspended in assay buffer (DMEM supplemented with 10% FCS 2×HI, 2 mM L-Glutamine, 1% Pen/Strep and Non essential amino acids) and diluted to 0.16×10^6/ml. 60 μl of cell solution was dispensed to each well of clear Nunc 384-well plates, containing compound at the required concentration. Plates were incubated for 1 h at 37° C., 95% humidity, 5% CO2 before 10 μl of TNFα was added at final concentration of 3.2 ng/ml and then returned to the cell incubator for 15 h. Plates were equilibrated to room temperature for 1 h prior to the addition of 25 μl of pNPP buffer (1M Diethanolamine pH 9.8, 0.5 mM MgCl2, 0.28M NaCl, 2 mg/ml pNPP) to each well of assay plates. The plates were covered to protect the reagents from light, and then incubated at room temperature for approximately 1 hour before reading them on an Ascent using a 405 nm single filter. Dose response curves were constructed from which pIC50 values were estimated.

progesterone receptor = biological target: T2, progesterone receptor (Homo sapiens, UniProt P06401); test: Assay for progesterone receptor activity (CV-1 cells, PRb-BacMam/MMTV-BacMam); assay type: cell-based; details: CV-1 cells transduced with PRb-BacMam and MMTV-BacMam; read-out: pEC50 progesterone receptor activity (converted)
T2 construct: expressed in transfected cells; host or cells: CV-1 cells transduced with PRb-BacMam and MMTV-BacMam
T2 sequence (P06401 1-933): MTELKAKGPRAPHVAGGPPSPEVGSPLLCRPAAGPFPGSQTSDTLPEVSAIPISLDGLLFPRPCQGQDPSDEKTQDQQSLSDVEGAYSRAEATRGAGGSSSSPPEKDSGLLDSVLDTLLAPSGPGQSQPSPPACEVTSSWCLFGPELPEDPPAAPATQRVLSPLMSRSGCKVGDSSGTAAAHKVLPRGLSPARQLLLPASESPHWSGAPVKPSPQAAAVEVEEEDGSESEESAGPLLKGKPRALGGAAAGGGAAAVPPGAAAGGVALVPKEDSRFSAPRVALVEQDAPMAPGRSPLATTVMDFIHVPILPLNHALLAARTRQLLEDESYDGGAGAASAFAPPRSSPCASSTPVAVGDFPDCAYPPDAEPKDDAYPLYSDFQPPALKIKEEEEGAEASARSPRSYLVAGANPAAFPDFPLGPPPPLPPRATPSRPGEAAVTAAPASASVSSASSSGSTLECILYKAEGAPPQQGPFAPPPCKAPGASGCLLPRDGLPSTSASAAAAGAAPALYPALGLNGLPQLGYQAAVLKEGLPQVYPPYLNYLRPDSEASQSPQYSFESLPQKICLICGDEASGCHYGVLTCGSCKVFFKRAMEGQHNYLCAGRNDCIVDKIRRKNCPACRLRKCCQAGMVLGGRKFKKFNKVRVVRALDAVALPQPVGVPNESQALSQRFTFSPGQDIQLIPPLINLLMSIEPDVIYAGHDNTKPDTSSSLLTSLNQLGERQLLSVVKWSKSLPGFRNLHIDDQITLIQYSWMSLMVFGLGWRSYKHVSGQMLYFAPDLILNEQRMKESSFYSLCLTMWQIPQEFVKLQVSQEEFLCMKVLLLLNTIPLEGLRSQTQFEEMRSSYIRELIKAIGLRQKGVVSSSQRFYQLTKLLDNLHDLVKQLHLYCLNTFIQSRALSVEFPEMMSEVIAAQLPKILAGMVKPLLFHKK
Experimental: A T225 flask of CV-1 cells at a density of 80% confluency was washed with PBS, detached from the flask using 0.25% trypsin and counted using a Sysmex KX-21N. Cells were diluted in DMEM containing 10% Hyclone, 2 mM L-Glutamate and 1% Pen/Strep at 140 cells/μl and transduced with 10% PRb-BacMam and 10% MMTV-BacMam. […] of suspension cells were dispensed to each well of white Nunc 384-well plates, containing compounds at the required concentration. After 24 h 10 μl of Steadylite were added to each well of the plates. Plates were incubated in the dark for 10 min before reading them on a Viewlux reader. Dose response curves were constructed from which pEC50 values were estimated.

[1] = Assay for brain penetrance; assay type: in vivo; details: brain and plasma, rat, single intravenous dose 1 mg/kg, read-out: brain to plasma ratio
Experimental: Each rat received a single intravenous dose at a level of 1 mg/kg. The dose was formulated in 10% DMSO/50% PEG200/40% sterile water. Terminal blood samples were taken at 5 or 15 minutes after dosing, by cardiac puncture following anaesthesia with isofluorane. The brains were removed at the same time point.
The compounds were extracted from 20 μL plasma by protein precipitation using 120 μL acetonitrile containing an analogue compound as an internal standard. The filtered extracts were collected into a 96 well plate and were diluted with an equal volume of 10% acetonitrile containing 0.1% formic acid in water (v/v). The plate was then mixed on a plate shaker for at least 5 minutes before analysis by LC-MS/MS against a calibration line prepared in control plasma.
Each brain was weighed, then homogenised in 3 ml acetonitrile:water (10:90 v/v). The compounds were extracted from 200 μL of the resulting homogenate by protein precipitation using 600 μL acetonitrile containing an analogue compound as an internal standard. The extracts were centrifuged and 150 μl of each was filtered and transferred to a 96 well plate. The aliquot was diluted with 10% acetonitrile containing 0.1% formic acid in water (v/v). The plate was mixed on a plate shaker for at least 5 minutes before analysis by LC-MS/MS against a calibration line prepared in control brain homogenate.

| Compound | Emax (MMTV promoter) [%] | IC50 (glucocorticoid receptor) [nM] | Emax (NFκB) [%] | IC50 (NFκB) [nM] | EC50 (progesterone receptor) [nM] | Kp at 5 min [1] |
| --- | --- | --- | --- | --- | --- | --- |
| Nc1c(C(=O)NCC(O)(CN(CCF)C(=O)c2c(F)cccc2Cl)C(F)(F)F)cnn1-c1ccc(F)cc1 (racemic) [Example 29 (racemic), 5-amino-N-(2-{[[(2-chloro-6-fluorophenyl)carbonyl](2-fluoroethyl)amino]methyl}-3,3,3-trifluoro-2-hydroxypropyl)-1-(4-fluorophenyl)-1H-pyrazole-4-carboxamide] | > 85 | ≤ 316 | > 85 | < 1000 | – | – |
| CCN(CC(O)(CNC(=O)c1cnn(-c2ccccc2Cl)c1N)C(F)(F)F)C(=O)c1c(F)cccc1F (racemic) [Example 40 (racemic), 5-amino-1-(2-chlorophenyl)-N-(2-{[[(2,6-difluorophenyl)carbonyl](ethyl)amino]methyl}-3,3,3-trifluoro-2-hydroxypropyl)-1H-pyrazole-4-carboxamide] | > 85 | ≤ 316 | > 85 | < 1000 | – | – |
| Nc1c(C(=O)NCC(O)(CNC(=O)c2c(Cl)cccc2C(F)(F)F)C(F)(F)F)cnn1-c1ccc(F)cc1 (racemic) [Example 44 (racemic), 5-Amino-N-{2-[({[2-chloro-6-(trifluoromethyl)phenyl]carbonyl}amino)methyl]-3,3,3-trifluoro-2-hydroxypropyl}-1-(4-fluorophenyl)-1H-pyrazole-4-carboxamide] | 20 to 85 | ≤ 316 | ≥ 20 | < 1000 | – | – |
| CN(CC(O)(CNC(=O)c1cnn(-c2ccc(F)cc2)c1N)C(F)(F)F)C(=O)c1c(Cl)cccc1Cl (single isomer, unassigned) [Example 1 Enantiomer 1, 5-Amino-N-(2-{[[(2,6-dichlorophenyl)carbonyl](methyl)amino]methyl}-3,3,3-trifluoro-2-hydroxypropyl)-1-(4-fluorophenyl)-1H-pyrazole-4-carboxamide] | – | ≤ 316 | – | < 1000 | > 1000 | ≥ 0.1 |
| Nc1c(C(=O)NCC(O)(CNC(=O)c2c(C(F)(F)F)cccc2C(F)(F)F)C(F)(F)F)cnn1-c1ccc(F)cc1 (single isomer, unassigned) [Example 15 Enantiomer 1, 5-amino-N-{2-[({[2,6-bis(trifluoromethyl)phenyl]carbonyl}amino)methyl]-3,3,3-trifluoro-2-hydroxypropyl}-1-(4-fluorophenyl)-1H-pyrazole-4-carboxamide] | 20 to 85 | ≤ 316 | ≥ 20 | – | > 1000 | – |
| Nc1c(C(=O)NCC(O)(CNC(=O)c2c(F)cccc2C(F)(F)F)C(F)(F)F)cnn1-c1ccc(F)cc1 (single isomer, unassigned) [Example 19 Enantiomer 1, 5-amino-1-(4-fluorophenyl)-N-{3,3,3-trifluoro-2-[({[2-fluoro-6-(trifluoromethyl)phenyl]carbonyl}amino)methyl]-2-hydroxypropyl}-1H-pyrazole-4-carboxamide] | 20 to 85 | ≤ 316 | ≥ 20 | < 1000 | – | – |
